# From US6185453A, “Iontophoretic delivery of integrin inhibitors” (DuPont Pharmaceuticals Company, priority 1997, dated 2001)
# “And” between values parts separate entries of the source, which are not always exact repeats. Equal values may be shown once. Where a name gives a salt, the structure may show the parent alone.
# Assays:
# [1] = In vitro excised porcine skin iontophoretic delivery (flow-through diffusion cell); assay type: in vitro ADME; settings: for Dose Delivered: 18 hours iontophoresis, 2 cm^2 patch
# Experimental: The iontophoretic delivery of a representative GPIIb/IIIa inhibitor compound, Compound A, was carried out in a flow-through diffusion cell in vitro excised skin delivery system. The transdermal patch design used in these studies included an absorbent drug reservoir with 2 cm^2 active area of skin contact and a volume of 0.3 mL. The drug reservoir compartment was separated from the electrode compartment by a semi-permeable membrane with a molecular weight cutoff of 100. The electrode compartment included a silver […] and a cation exchange media in a hydrogel matrix. The drug reservoir compartment was filled with dosing solution just before application to the skin. A silver-silver chloride mesh return cathode was located upstream of the polycarbonate flow-through cells. Freshly dermatomed (1 mm) porcine skin was mounted in the cells on a porous support polyethylene. The patches included an absorbent reservoir in contact with silver and silver chloride electrodes. They were dosed with aqueous solutions of the drug and then placed on top of the excised skin. The patches were secured by a spring loaded mechanism which maintained even pressure over the patch. The cells were "perfused" by means of a peristaltic pump which pulls receiver solution through them. Effluents from the cells were collected with a fraction collector. Flow rates were typically 0.25 mL/min. The receiver solution was an isotonic pH 7.4 buffered saline solution containing 10 mM HEPES, 100 mM NaCl, PEG 400, and a surfactant, Pluronic P-103. Iontophoresis current was provided by a constant current power supplies, and the applied currents and cell voltages were recorded with a data logger. The flux profile vs. time and the cumulative dose delivered with 18 hours of iontophoresis were determined. This was followed by 3 hours where no current was applied. Concentrations of Compound A were determined using a radiolabeled marker or by HPLC. A study was performed using applied currents of 0-800 μA, and concentrations of Compound A in the patch of 50 or 100 mg/mL. Additional studies were performed using lower applied currents, lower concentrations of Compound A in the patch, and dosing solutions containing various concentrations of NaCl. […] At 100 μA the delivery rate of Compound A was approximately 10 μg/hr for the 2 cm^2 surface area, which was also within the targeted range. An alternative patch design, a monolithic patch rather than the membrane separated patch, was also tested. This patch is composed of two layers of absorbent material between which is sandwiched a silver anode.
# [2] = In vivo swine iontophoretic delivery / IV infusion, plasma concentrations (LC-MS); parameters: species or system Yorkshire swine; settings: for in vivo delivery rate: 10 mg/mL, by comparison with IV infusion of Compound B
# From the text: In each experiment, the patches were loaded with drug solution immediately before application to the skin of the animals. Unanesthetized Yorkshire swine with weights from about 20 to 35 kg were used. The skin sites receiving the patches were wiped clean with moist gauze pads. Patches were overwrapped with an adhesive, elastic wrap to hold the patches in place. Separate constant current power supplies were provided for each iontophoresis patch system. Current and voltage readings were made and recorded on-board dataloggers. Blood samples were withdrawn from the vena cava through an IV catheter into VACUTAINER™ blood collection tubes containing EDTA. After gentle mixing, the tubes were centrifuged to separate the plasma, which transferred to clean polypropylene tubes and frozen on dry ice. Frozen samples were stored at -80° C. until assayed.
# Compound B concentrations in plasma were determined by LC-MS. The patches used were of the monolithic design described above, and having a 2 cm^2 skin coverage area. Patches were filled with solutions containing 10-20 mg/mL Compound A and 154 mM NaCl. […], plasma concentrations of Compound B increased for the first 5-8 hours of dosing and then reached steady-state.Steady-state plasma concentrations of approximately 1-2 ng/mL were attained. After an intravenous infusion of Compound B at 10 μg/hr, steady-state plasma concentrations of Compound B were also approximately 1-2 ng/mL. Therefore, the transdermal delivery rate at steady-state was approximately 10 μg/hr.
# Pigs were also dosed with patches containing 10 mg/mL of Compound A, using currents of 50 and 100 μA. In these studies four patches were used for each pig, for a total skin coverage area of 8 cm^2. […] Actual in vivo delivery rates were estimated by comparison with plasma concentrations after intravenous infusion of Compound B. The 50 μA current delivered Compound A at approximately 25 μg/hr, and the 100 μA current delivered Compound A at approximately 40 μg/hr.
# [3] = iontophoresis of 10 mg/mL Compound A, 50 and 100 μA, four patches (8 cm^2)
structure (smiles),measurement,setting,value
"CCCCOC(=O)N[C@@H](CNC(=O)C[C@H]1CC(c2ccc(C(=N)N)cc2)=NO1)C(=O)OC [Compound A, methyl-N^3-[2-{3-(4-formamidinophenyl)-isoxazolin-5(R)-yl}-acetyl]-N^2-(n-butyloxycarbonyl)-2,3-(S)-diaminopropionate methanesulfonate salt]",skin permeation,[1],very low skin permeation
same,Dose Delivered,"[1]; 0 μA, 100 mg/mL Compound A (as salt), methanesulfonate salt",0.2 mg and 0.1 mg
same,transdermal delivery rates versus applied current,"[1]; 10 mg/mL Compound A, 154 mM NaCl, 0, 25, 50, and 100 μA",proportional to the applied current
same,time to maximum delivery,"[1]; 50 or 100 mg/mL Compound A, iontophoresis",about 5 hours
same,delivery rate,"[1]; 100 μA, 10 mg/mL Compound A, 154 mM NaCl, 2 cm^2",approximately 10 μg/hr
same,Dose Delivered,"[1]; 200 μA, 100 mg/mL Compound A (as salt), methanesulfonate salt",1.2 mg and 1.1 mg and 1.0 mg
same,Dose Delivered,"[1]; 400 μA, 50 mg/mL Compound A (as salt)",1.1 mg
same,Dose Delivered,"[1]; 800 μA, 50 mg/mL Compound A (as salt), methanesulfonate salt",2.1 mg and 2.3 mg
same,variability in delivery from skin to skin,"[1]; FIG. 2, 10 mg/mL, 154 mM NaCl, 50 μA",extremely low
same,in vitro delivery versus current,"[1]; FIG. 3, 10 mg/mL, 9 mg/mL NaCl, 0-100 μA",proportional to increase in current
same,consistency of delivery,[1]; for any specified drug concentration and applied current,generally very consistent
same,transdermal delivery,[1]; in the presence of the applied current,greatly increased
same,delivery rates,[1]; when the current was turned off,very low levels
same,dosing rates,"[1]; within the target range, 50 or 100 mg/mL Compound A",5 to 250 µg/h
same,transdermal delivery rate at steady-state,"[2]; 20 mg/mL Compound A, 100 μA, 2 cm^2, by comparison with IV infusion",approximately 10 μg/hr
same,"blood levels, iontophoresis (FIG. 5) compared with constant IV infusion of Compound B (FIG. 4)","[2]; 20 mg/mL, 154 mM NaCl, 200 μA, 2 cm^2 vs IV 10 μg/h",similar
same,in vivo delivery rate,"[2]; 50 μA, four patches (8 cm^2)",approximately 25 μg/hr
same,in vivo delivery rate,"[2]; 100 μA, four patches (8 cm^2)",approximately 40 μg/hr
same,variability in plasma levels with iontophoresis,"[2]; FIG. 5, 20 mg/mL, 154 mM NaCl, 200 μA, 2 cm^2",extremely low
same,in vivo conversion to acid form (Compound B),[2]; in vivo,rapidly converted to its acid form
"CCCCOC(=O)N[C@@H](CNC(=O)C[C@H]1CC(c2ccc(C(=N)N)cc2)=NO1)C(=O)O [Compound B, N^3-[2-{3-(4-formamidinophenyl)-isoxazolin-5(R)-yl}-acetyl]-N^2-(n-butyloxycarbonyl)-2,3-(S)-diaminopropanoic acid]",steady-state plasma concentrations,"[2]; approximately, intravenous infusion of Compound B at 10 μg/hr",1 to 2 ng/mL
same,period of plasma concentration increase before apparent steady-state,[2]; [3],first several hours
same,plasma concentrations during 24 hours of iontophoretic dosing,[2]; [3],fairly constant
same,plasma concentrations versus applied current,[2]; [3],proportional to the applied current
same,time during which plasma concentrations increased before steady-state,"[2]; iontophoresis of 20 mg/mL Compound A, 100 μA, 2 cm^2",5 to 8 h
